The NIST ThermoML archive (doi:10.1021/acs.jced.8b00081)
Numbers after ± are expanded uncertainties.

Assay: wn = mass fraction of the nth substance listed
Conditions: 88.35 kPa, Liquid, Pycnometric method

- mass density (298.15 K, w1 = 0.2672): 1180 ± 12 kg/m3
- mass density (313.15 K, w1 = 0.29): 1192 ± 12 kg/m3
SMILES: [Cl-].[K+] [potassium chloride] + O
